From PMC13492380, “Dissecting Structural and Functional Determinants of Microtubules Stabilization through Guided Chemical Modulation” (Journal of Medicinal Chemistry, 2026)

Assays:
[1] = tested on: Tau-mCherry (Tau 441 isoform) on stabilized MTs from porcine brain tubulin; assay: Tau-mCherry binding to stabilized MTs (TIRF); format: biochemical; conditions: 40 nM Tau-mCherry
Description: Previous studies in vitro have shown that Tau molecules strongly prefer compacted GDP lattices. Tau binds cooperatively to MT surfaces, resulting in a cohesive layer depending on tau-tau interactions, termed MT envelope, which selectively regulates access to MT lattices, and shields MTs from severing enzymes. − On expanded PTX-MTs, Tau envelope also forms and the lattice can get locally compacted. To further explore how MT lattice structure influences Tau binding, we employed an in vitro reconstitution assay. We deposited stabilized MTs in a flow chamber, and visualized them via interference reflection microscopy (Figure C). We then added 10 nM Tau-mCherry (labeled purified Tau 441 isoform at the C-terminus with mCherry) and monitored its association with MTs using time-lapse TIRF microscopy. After 4 min, we increased Tau concentration to 40 nM, and continued imaging for an additional 4 min. We measured fluorescence intensities along MTs to quantify Tau binding (Movies S16–S27). […] PTXpost-MTs also supported […] faster envelope growth (0.20 ± 0.02 μm/s versus 0.054 ± 0.006 μm/s for PTXpre-MTs, Figure H).
(§1) Total Internal Reflection Fluorescence microscopy experiments were performed on an inverted widefield microscope Nikon-Ti2 E, equipped with a motorized XY-stage, a perfect focus system, Apo TIRF 60× oil NA 1.49 objective and PRIME BSY (Teledyne Photometrics) camera. MTs were visualized using Interference Reflection microscopy (IRM) and fluorescently labeled proteins were visualized sequentially by switching between microscope filter cubes for GFP and mCherry channels. The microscopes were controlled using NIS Elements software (Nikon). All experiments were conducted at RT.
(§2) Microscopy chambers were prepared from two sandwiched silanized glass coverslips (22 × 22 mm^2 and 18 × 18 mm^2) attached through parafilm strips (heated for 15–20 s at 60 °C and gently pressed together) to form ∼2.5 mm wide parallel flow channels. Prior to the chamber assembly, the coverslips were washed in 3 M KOH, cleaned using Zepto plasma cleaner (Diener electronic) and silanized with hexamethyldisilazane. Flow channels were first incubated with 40 μgml^–1 antibiotin antibodies (Sigma, B3640) in PBS for 10 min, followed by incubation with 1% Pluronic F127 (Sigma-Aldrich, P2443) in PBS for at least 1 h. F127 was washed with BRB80 (80 mM PIPES, 1 mM EGTA, 1 mM MgCl2, pH 6.9).
(§3) Porcine brain tubulin was isolated using the high-molarity PIPES procedure then mixed with Biotin labeled tubulin (Cytoskeleton Inc., T333P) in 1:49 ratio. All MTs were polymerized using 2% biotin-labeled tubulin. […] Polymerized MTs were centrifuged for 30 min at 18,000g in a Microfuge 18 Centrifuge (Beckman Coulter’s). […] Drug stabilized preassembly MTs (polymerized in the presence of drugs and GTP, stored and imaged in presence of drug) were polymerized from 4 mg mL^–1 biotinylated tubulin for 30 min at 37 °C in BRB80 supplemented with 4 mM MgCl2, 40 μM drug of interest in 5% DMSO, and 1 mM GTP. Polymerized MTs were centrifuged for 30 min at 18,000g in a Microfuge 18 Centrifuge (Beckman Coulter’s). […] GMPCPP stabilized MTs (GMPCPP polymerized) were assembled from 4 mg mL^–1 biotinylated tubulin for 2 h at 37 °C in BRB80 supplemented with 1 mM MgCl2 and 1 mM GMPCPP (Jena Bioscience, NU-405). Polymerized MTs were centrifuged for 30 min at 18,000g in a Microfuge 18 Centrifuge (Beckman Coulter’s) and pellets were resuspended and kept in BRB80.
Stabilized MTs were flushed into the channel and incubated for 15–30 s to allow for surface attachment. Unbound MTs were removed by washing with BRB80 supplemented with 10 μM of drug. Prior the experiment, the solution was exchanged by motility buffer, MB (BRB80 containing 10 mM DTT, 20 mM D-glucose, 0.1% Tween-20, 0.5 mg/mL casein, 1 mM Mg-ATP, 0.02 mg/mL catalase, 0.22 mg/mL glucose oxidase, 10 μM drug). Subsequently, a solution containing either 1.08 nM Kif5b-EGFP or 10/40 nM mCherry-Tau in MB was introduced into the chamber. […]

[2] = tested on: human Kif5B 1–905-EGFP on stabilized MTs; assay: Single-molecule kinesin-1 motility assay on stabilized MTs (TIRF); format: biochemical; conditions: 1.08 nM Kif5b-EGFP, 10 μM drug
Procedure: To gain mechanistic insight into the kinesin phenotype observed in cells, we reduced system complexity using an in vitro reconstitution assay. Specifically, we performed time-lapse imaging using total internal reflection fluorescence (TIRF) microscopy with immobilized and stabilized MTs in a flow chamber, into which we introduced 1.08 nM kinesin-1 motors (constitutively active human Kif5B 1–905-EGFP). We then analyzed individual kinesin movements to quantify landing rates (number of motors per unit MT length per unit time), run lengths, interaction times, and average velocities (Figure D, Movies S12–S15). In contrast to our experiments in cells, here we evaluated each structural modification individually to dissect the effects of MT lattice parameters on kinesin-1 mediated transport.
as §1, §2, §3
Stabilized MTs were flushed into the channel and incubated for 15–30 s to allow for surface attachment. Unbound MTs were removed by washing with BRB80 supplemented with 10 μM of drug. Prior the experiment, the solution was exchanged by motility buffer, MB (BRB80 containing 10 mM DTT, 20 mM D-glucose, 0.1% Tween-20, 0.5 mg/mL casein, 1 mM Mg-ATP, 0.02 mg/mL catalase, 0.22 mg/mL glucose oxidase, 10 μM drug). Subsequently, a solution containing either 1.08 nM Kif5b-EGFP or 10/40 nM mCherry-Tau in MB was introduced into the chamber.
To assess kinesin-EGFP motility along MTs, an IRM image (50 ms exposure) was acquired followed by a 1 min video using 488 nm laser excitation (20% laser intensity, 300 ms exposure) with no delay. Two to three videos were recorded from different fields within the same channel and at least 2 channels were measure for each experimental condition. […]

[3] = tested on: taxane site of assembled cross-linked MTs; assay: Displacement of FTX2 from the taxane site (fluorescence polarization); format: binding, calf; conditions: 35 °C
Procedure: Purified calf brain tubulin and chemicals were obtained as previously described. Tau-mCherry was expressed and purified as described previously. Human Kif5B-EGFP (amino acids 1-905), containing a C terminal fluorescent-tag followed by a 3C protease cleavage site and a 6 × His-tag was expressed and purified as in with some modifications. Prior to purification, cells were resuspended in 1:1 ratio of lysis buffer (30 mM HEPES pH 7.5, 300 mM NaCl, 0.5 mM ATP, 5% glycerol, 20 mM imidazole, […]) supplemented with 1× Protease inhibitor cocktail and benzonase to the final concentration of 25 units/ml. Cells were homogenized by repeated pipetting. Cells were lysed by spinning for 45 min at 40,000 rpm in 45 Ti fixed-angle rotor (Beckman Coulter) at 4 °C. The supernatant was incubated with pre-equilibrated HisPUR NiNTA agarose resin (Thermo Fisher Scientific) for 1 h in a tightly closed gravity-flow column (Thermo Fisher Scientific) at 4 °C by slowly rotating. Subsequently, the resin was washed once lysis buffer and then with buffer B (30 mM HEPES pH 7.5, 300 mM NaCl, 0.5 mM ATP, 5% glycerol, 30 mM imidazole, […]). The protein was eluted from the resin after an overnight cleavage of the 6 × His-tag with 3C HRV protease in lysis buffer at 4 °C. The eluted protein was further purified via size exclusion chromatography on Superdex 200 10/300 GL column equilibrated in exclusion buffer (30 mM HEPES pH 7.5, 300 mM NaCl, 0.5 mM ATP, 5% glycerol, […]). Peak fractions were analyzed via SDS-PAGE, pooled and the protein was concentrated with Amicon Ultra-15 Centrifugal Filter tubes (Millipore). Purified proteins were aliquoted, snap-frozen in liquid N2, and stored at −80 °C.
The equilibrium binding constant of 1a and 1b to the taxane site of assembled MTs were determined by the displacement of FTX2 from the taxane site in cross-linked MTs. The displacement isotherm of each ligand was measured at least three times in two different plates with a fluorescence polarization microplate reader, as described. A mixture of 50 nM taxane binding sites and 50 nM FTX2 in GAB buffer was sampled in a 96-well plate. […] After mixing the samples for 10 min by shaking at 250 rpm, they were incubated 20 min at the desired temperatures (26, 35 or 42 °C) and their anisotropies were measured using a Spark Tecan plater reader in fluorescence polarization at emission of 535 nm and excitation of 485 nm. A sample containing 50 nM taxane binding sites was employed as blank, and a 50 nM solution of FTX2 in GAB, 0.1 mM GTP was employed as anisotropy standard. G factor was calculated as a mean over several cells in different conditions. The molar saturation fraction, X b , of the probe for each competitor concentration is calculated from the polarization values measured, P. Measurements of the polarization of FTX2 completely displaced (P 0 ) and, in absence of the competitor ligand (P sat), are required for data processing. The binding of FTX2 in the presence of the competitor ligand (X b = (P–P 0 /P sat – P 0 ) · X sat) was calculated and best fitted to the equilibrium binding constant of the competitor assuming unitary stoichiometry and the binding constant of the reference ligand (FTX2) with a PC program (Equigra v5).
Once the equilibrium binding constants are measured at different temperatures, the standard free energy of binding at a given temperature is calculated from the binding constant as ΔG 0app = −RT Ln K a, the standard enthalpy of the binding reaction is calculated from the representation of Ln K a versus 1/T (Van’t Hoff representation), and the slope of this representation multiplied by −R is equal to −ΔH 0app. The standard entropy of binding to ΔS 0app is calculated from the slope of the linear regression of ΔG 0app versus T.

Compound | Tau-mCherry coating of stabilized MTs [1] | kinesin-1 landing rate on stabilized MTs [2] | kinesin-1 time bound on stabilized MTs [2] | kinesin-1 velocity on stabilized MTs [2] | incremental binding free energy (ΔΔG), PTX-to-derivative modification [3] [kJ mol^–1]
Nc1nc2c(ncn2C2OC(COP(=O)(O)CP(=O)(O)OP(=O)(O)O)C(O)C2O)c(=O)[nH]1 (stereo not drawn) [GMPCPP, guanosine-5′-[(α,β)-methyleno]triphosphate] | bound diffusively | decreased on GMPCPP compared with PTX | increased the time bound | decreased the velocity | –
CC(=O)OC1C(=O)C2(C)C(OC(=O)C(C)NC(=O)CCCCCNC(=O)c3ccc(-c4c5ccc(=O)cc-5oc5cc(O)ccc45)c(C(=O)O)c3)CC3OCC3(OC(C)=O)C2C(OC(=O)c2ccccc2)C2(O)CC(OC(=O)C(O)C(NC(=O)c3ccccc3)c3ccccc3)C(C)=C1C2(C)C (stereo not drawn) [HFX, Hexaflutax, reference compound] | – | – | – | – | 6.9
Flutax-1 [reference compound] | – | – | – | – | −1.63
